test system: T1, GCaMP5-expressing T. gondii; design: species or system GCaMP5-expressing Toxoplasma gondii, extracellular; GCaMP5 fluorescence (cytosolic Ca2+) after 100 uM zaprinast in compound-pretreated extracellular parasites, background-subtracted, relative to zaprinast alone; details: 100 uM zaprinast stimulation; 10 min pretreatment; mean of two replicates; 0.23 h
T1 construct: whole extracellular parasites expressing GCaMP5 Ca2+ sensor
Description: GCaMP5-expressing parasites were suspended in Ringer's solution at 4 × 10^7 parasites/ml, and 50 μl of parasites were applied to each well of a 96-well plate (Costar, catalog no. 3631). […] Parasites were then treated with 100 μM zaprinast or 0.1% DMSO as a vehicle control and incubated at 37 °C with 5% CO2 for an additional 4 min before measuring fluorescence with excitation and emission wavelengths of 485 and 525 nm, respectively, on a SpectraMax M3 (Molecular Devices). Basal fluorescence, measured from untreated parasites, was subtracted from all values, and results were expressed as -fold change from parasites treated only with zaprinast. Z′ factors were determined from (i) parasites treated with zaprinast versus untreated parasites and (ii) parasites treated with a final concentration of 1 μM Cpd2 or a vehicle control followed by zaprinast, using the formula, Z′ = 1 − 3(σp + σn)/(|μp − μn|), where σp and σn indicate S.D. values of positive and negative controls, and μp and μn indicate the means of positive and negative controls, respectively. […] We predicted that the zaprinast response measured in GCaMP5-expressing parasites could form the basis for a phenotypic screen. Such a screen would benefit from the known importance of Ca^2+ signaling in parasite biology along with the reported success rate of cell-based phenotypic assays. We designed a screen wherein extracellular GCaMP5-expressing parasites were pretreated with compounds for 10 min before stimulation with zaprinast, and parasite fluorescence was measured 4 min later. We expected that compounds that interfered with the zaprinast response would reduce fluorescence. We calculated a Z′-factor for this screen to determine its dynamic range and suitability to high throughput screening. To do so, we compared zaprinast-treated parasites to untreated parasites or those pretreated with the PKG inhibitor Compound 2 (Cpd2) ([55]). […] We obtained the compound libraries published kinase inhibitor sets PKIS1 ([57]) and PKIS2 (unpublished), from GlaxoSmithKline and applied our phenotypic screen to the 823 ATP mimetics represented in these collections (Fig. 2B and supplemental Table S1). The compounds were screened at a single 10 μM dose with two biological replicates.

| SMILES | fold change in fluorescence relative to zaprinast alone |
| --- | --- |
| COC(=O)C(Cc1ccccc1)NC(=O)NC1CCN(c2ccnc(Nc3ccc(F)cc3)n2)C1 (stereo not drawn) [GSK1379714A] | 0.7659 |
| CCCc1ccc(S(=O)(=O)NC2CCN(c3ccnc(Nc4ccc(F)cc4)n3)C2)cc1 (stereo not drawn) [GSK1379715A] | 0.5743 |
| O=C(NC1CCN(c2ccnc(Nc3ccc(F)cc3)n2)C1)c1cc2ccccc2s1 (stereo not drawn) [GSK1379716A] | 1.103 |
| Cn1cncc1C(=O)NC1CCN(c2ccnc(Nc3ccc(F)cc3)n2)C1 (stereo not drawn) [GSK1379717A] | 1.089 |
| Cc1ccc(C)c(NC(=O)NC2CCN(c3ccnc(Nc4ccc(F)cc4)n3)C2)c1 (stereo not drawn) [GSK1379720A] | 1.268 |
| COc1cccc(NC(=O)NC2CCN(c3ccnc(Nc4ccc(F)cc4)n3)C2)c1 (stereo not drawn) [GSK1379721A] | 0.358 |
| O=C(Nc1ccccc1F)NC1CCN(c2ccnc(Nc3ccc(F)cc3)n2)C1 (stereo not drawn) [GSK1379722A] | 0.7204 |
| COc1cccc(CNC(=O)NC2CCN(c3ccnc(Nc4ccc(F)cc4)n3)C2)c1 (stereo not drawn) [GSK1379723A] | 0.5252 |
| O=C(Nc1ccc2c(c1)OCO2)NC1CCN(c2ccnc(Nc3ccc(F)cc3)n2)C1 (stereo not drawn) [GSK1379724A] | 0.9401 |
| COC(=O)c1cccc(NC(=O)NC2CCN(c3ccnc(Nc4ccc(F)cc4)n3)C2)c1 (stereo not drawn) [GSK1379725A] | 0.2001 |
| COc1ccc(CNC(=O)NC2CCN(c3ccnc(Nc4ccc(OC)cc4)n3)C2)cc1 (stereo not drawn) [GSK1379727A] | 1.253 |
| COc1ccc(Nc2nccc(N3CCC(NS(=O)(=O)c4ccc(NC(C)=O)cc4)C3)n2)cc1 (stereo not drawn) [GSK1379729A] | 1.531 |
| COc1ccc(Nc2nccc(N3CCC(NC(=O)c4cccc(C#N)c4)C3)n2)cc1 (stereo not drawn) [GSK1379730A] | 0.96 |
| COc1ccc(Nc2nccc(N3CCC(NC(=O)Nc4cccc(C(C)=O)c4)C3)n2)cc1 (stereo not drawn) [GSK1379731A] | 0.6491 |
| COc1ccc(Nc2nccc(N3CCC(NC(=O)c4cccc(NC(C)=O)c4)C3)n2)cc1 (stereo not drawn) [GSK1379732A] | 1.077 |
| COc1ccc(Nc2nccc(N3CCC(NC(=O)C(C)c4ccc(Cl)cc4)C3)n2)cc1 (stereo not drawn) [GSK1379735A] | 0.6825 |
| CCCc1ccc(S(=O)(=O)NC2CCN(c3ccnc(Nc4ccc(OC)cc4)n3)C2)cc1 (stereo not drawn) [GSK1379737A] | 0.6293 |
| COc1ccc(Nc2nccc(N3CCC(NC(=O)c4cc5ccccc5s4)C3)n2)cc1 (stereo not drawn) [GSK1379738A] | 0.9419 |
| COc1ccc(Nc2nccc(N3CCC(NC(=O)Nc4cc(C)ccc4C)C3)n2)cc1 (stereo not drawn) [GSK1379741A] | 1.033 |

| SMILES | fold change in fluorescence relative to zaprinast alone |
| --- | --- |
| COc1ccc(Nc2nccc(N3CCC(NC(=O)Nc4cccc(OC)c4)C3)n2)cc1 (stereo not drawn) [GSK1379742A] | 1.221 |
| COc1ccc(Nc2nccc(N3CCC(NC(=O)Nc4ccc5c(c4)OCO5)C3)n2)cc1 (stereo not drawn) [GSK1379745A] | 1.223 |
| COC(=O)c1cccc(NC(=O)NC2CCN(c3ccnc(Nc4ccc(OC)cc4)n3)C2)c1 (stereo not drawn) [GSK1379746A] | 1.123 |
| COc1cc(Nc2nccc(N3CCC(NC(=O)c4cccc(C#N)c4)C3)n2)cc(OC)c1OC (stereo not drawn) [GSK1379751A] | 1.563 |
| COc1cc(Nc2nccc(N3CCC(NC(=O)Nc4cccc(C(C)=O)c4)C3)n2)cc(OC)c1OC (stereo not drawn) [GSK1379753A] | 1.391 |
| COc1cc(Nc2nccc(N3CCC(NC(=O)c4cccc(NC(C)=O)c4)C3)n2)cc(OC)c1OC (stereo not drawn) [GSK1379754A] | 1.271 |
| COc1cc(Nc2nccc(N3CCC(NC(=O)c4cc5ccccc5s4)C3)n2)cc(OC)c1OC (stereo not drawn) [GSK1379760A] | 1.279 |
| COc1cccc(NC(=O)NC2CCN(c3ccnc(Nc4cc(OC)c(OC)c(OC)c4)n3)C2)c1 (stereo not drawn) [GSK1379763A] | 1.269 |
| COc1cc(Nc2nccc(N3CCC(NC(=O)Nc4ccc5c(c4)OCO5)C3)n2)cc(OC)c1OC (stereo not drawn) [GSK1379766A] | 1.478 |
| COC(=O)c1cccc(NC(=O)NC2CCN(c3ccnc(Nc4cc(OC)c(OC)c(OC)c4)n3)C2)c1 (stereo not drawn) [GSK1379767A] | 1.23 |
| COc1ccc(CNC(=O)NC2CCN(c3ccnc(Nc4ccc(F)cc4)n3)CC2)cc1 [GSK1379788A] | 1.01 |
| O=C(Nc1ccccc1F)NC1CCN(c2ccnc(Nc3ccc(F)cc3)n2)CC1 [GSK1379800A] | 0.9564 |
| COc1ccc(Nc2nccc(N3CCC(NC(=O)C(C)c4ccc(Cl)cc4)CC3)n2)cc1 (stereo not drawn) [GSK1379812A] | 1.185 |
| COc1cc(Nc2nccc(N3CCC(NS(=O)(=O)c4ccc(NC(C)=O)cc4)CC3)n2)cc(OC)c1OC [GSK1379825A] | 1.055 |
| O=C(Nc1ccc2c(c1)OCO2)NC1CCN(c2ccnc(NCc3ccc(F)cc3)n2)CC1 [GSK1379859A] | 0.7305 |
| COC(=O)c1cccc(NC(=O)NC2CCN(c3ccnc(NCc4ccc(F)cc4)n3)CC2)c1 [GSK1379860A] | 0.8716 |
| O=C(NCCNc1ccnc(Nc2ccc(F)cc2)n1)c1cc2ccccc2s1 [GSK1379874A] | 0.6895 |
| Cc1ccc(C)c(NC(=O)NCCNc2ccnc(Nc3ccc(F)cc3)n2)c1 [GSK1379878A] | 1.583 |
| COc1cccc(NC(=O)NCCNc2ccnc(Nc3ccc(F)cc3)n2)c1 [GSK1379879A] | 1.178 |

| SMILES | fold change in fluorescence relative to zaprinast alone |
| --- | --- |
| O=C(NCCNc1ccnc(Nc2ccc(F)cc2)n1)Nc1ccccc1F [GSK1379880A] | 1.302 |
| O=C(NCCNc1ccnc(Nc2ccc(F)cc2)n1)Nc1ccc2c(c1)OCO2 [GSK1379882A] | 1.425 |
| COC(=O)c1cccc(NC(=O)NCCNc2ccnc(Nc3ccc(F)cc3)n2)c1 [GSK1379883A] | 0.8839 |
| COc1ccc(Nc2nccc(NCCNC(=O)c3cc4ccccc4s3)n2)cc1 [GSK1379896A] | 1.173 |
| COc1ccc(Nc2nccc(NCCNC(=O)Nc3cc(C)ccc3C)n2)cc1 [GSK1379899A] | 1.713 |
| COc1ccc(Nc2nccc(NCCNC(=O)Nc3ccccc3F)n2)cc1 [GSK1379901A] | 0.9014 |
| O=C(NCCNc1ccnc(NCc2ccc(F)cc2)n1)c1cc2ccccc2s1 [GSK1379944A] | 0.7055 |
| CCNCC(Cc1ccccc1)NC(=O)c1cc(Br)c(-c2ccnc3[nH]ccc23)s1 (stereo not drawn) [GSK1383280A] | 0.5995 |
| CC(C)NCC(Cc1ccccc1)NC(=O)c1cc(Br)c(-c2ccnc3[nH]ccc23)s1 (stereo not drawn) [GSK1383281A] | 1.049 |
| COc1ccc(C[C@@H](CN)NC(=O)c2cc(Br)c(-c3ccnc4[nH]ccc34)s2)cc1 [GSK1389063A] | 0.8633 |
| COc1cc(N2CCN(C(C)C)CC2)ccc1Nc1nc(Nc2ccc(F)cc2C(=O)NC[C@@H](O)CO)c2cc[nH]c2n1 [GSK1392956A] | 1.138 |
| Cc1ccc(NC(=O)c2ccc(Cl)c(Cl)c2)cc1-c1ccc(C(=O)Nc2ccncc2)cc1 [GSK1398460A] | 1.557 |
| Cc1ccc(NC(=O)c2cccc(C#N)c2)cc1-c1ccc(C(=O)Nc2ccncc2)cc1 [GSK1398463A] | 1.609 |
| Cc1ccc(NC(=O)Nc2cccc(Cl)c2)cc1-c1ccc(C(=O)Nc2ccncc2)cc1 [GSK1398468A] | 0.4262 |
| Cc1ccc(NC(=O)Nc2ccc(Cl)c(C(F)(F)F)c2)cc1-c1ccc(C(=O)Nc2ccncc2)cc1 [GSK1398470A] | 0.581 |
| Cc1ccc(C)c(NC(=O)Nc2ccc(C)c(-c3ccc(C(=O)Nc4ccncc4)cc3)c2)c1 [GSK1398473A] | 1.092 |
| COc1cccc(NC(=O)Nc2ccc(C)c(-c3ccc(C(=O)Nc4ccncc4)cc3)c2)c1 [GSK1398474A] | 1.231 |
| Cc1cc(-c2ccnc(Nc3cccc(C#N)c3)n2)cc(C)c1O [GSK1440913A] | 0.3868 |
| NC[C@H](Cc1ccc(C(F)(F)F)cc1)NC(=O)c1cc(Br)c(-c2ccnc3[nH]ccc23)s1 [GSK1487252A] | 0.4926 |

— article PMC4850295, “Using a Genetically Encoded Sensor to Identify Inhibitors of Toxoplasma gondii Ca^2+ Signaling” (The Journal of Biological Chemistry, 2016)
